Source: the supplement of paper PMC10307832

Columns and labels:
Assay in all cases: relative viability (nuclei count vs DMSO), 5 days (fraction); higher = more cells survive
GW-2580 + Lapatinib = compound: COC1=CC=C(C=C1)COC2=C(C=C(C=C2)CC3=CN=C(N=C3N)N)OC [GW-2580] + CS(=O)(=O)CCNCc1ccc(-c2ccc3ncnc(Nc4ccc(OCc5cccc(F)c5)c(Cl)c4)c3c2)o1 [Lapatinib] (partner 2 µM)
Procedure, shortened: (§1)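 Values are medians from duplicate plates. Each reflects relative viability, defined as the nuclei count of treated wells over that of vehicle wells. Lung cancer cell lines in 1536-well plates were pin-tool dosed one day after seeding with one drug alone or with a fixed anchor-drug dose plus five library-drug doses (not always all listed) in √10 steps, then fixed, stained and imaged at 4× after 5 days.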

Fedratinib + Alpelisib = compound: Cc1cnc(Nc2ccc(OCCN3CCCC3)cc2)nc1Nc1cccc(S(=O)(=O)NC(C)(C)C)c1 [Fedratinib] + Cc1nc(NC(=O)N2CCC[C@H]2C(N)=O)sc1-c1ccnc(C(C)(C)C(F)(F)F)c1 [Alpelisib] (partner 2 µM)
Procedure, shortened: as §1

Fedratinib + Olaparib = compound: Cc1cnc(Nc2ccc(OCCN3CCCC3)cc2)nc1Nc1cccc(S(=O)(=O)NC(C)(C)C)c1 [Fedratinib] + O=C(c1cc(Cc2n[nH]c(=O)c3ccccc23)ccc1F)N1CCN(C(=O)C2CC2)CC1 [Olaparib] (partner 8 µM)
Procedure, shortened: as §1

GW-2580 + Luminespib = compound: COC1=CC=C(C=C1)COC2=C(C=C(C=C2)CC3=CN=C(N=C3N)N)OC [GW-2580] + CCNC(=O)c1noc(-c2cc(C(C)C)c(O)cc2O)c1-c1ccc(CN2CCOCC2)cc1 [Luminespib] (partner 0.01 µM)
Procedure, shortened: as §1

Fedratinib + OSI-027 = compound: Cc1cnc(Nc2ccc(OCCN3CCCC3)cc2)nc1Nc1cccc(S(=O)(=O)NC(C)(C)C)c1 [Fedratinib] + COc1cccc2cc(-c3nc([C@H]4CC[C@H](C(=O)O)CC4)n4ncnc(N)c34)[nH]c12 [OSI-027] (partner 0.5 µM)
Procedure, shortened: as §1

Fedratinib + Tozasertib = compound: Cc1cnc(Nc2ccc(OCCN3CCCC3)cc2)nc1Nc1cccc(S(=O)(=O)NC(C)(C)C)c1 [Fedratinib] + Cc1cc(Nc2cc(N3CCN(C)CC3)nc(Sc3ccc(NC(=O)C4CC4)cc3)n2)n[nH]1 [Tozasertib] (partner 0.1 µM)
Procedure, shortened: as §1

| Cell Line | relative viability (GW-2580 + Lapatinib; first compound 0.08 µM) | relative viability (GW-2580 + Lapatinib; first compound 0.8 µM) | relative viability (GW-2580 + Lapatinib; first compound 2.53 µM) | relative viability (GW-2580 + Lapatinib; first compound 8 µM) | relative viability (Fedratinib + Alpelisib; first compound 0.1 µM) | relative viability (Fedratinib + Alpelisib; first compound 0.3162 µM) | relative viability (Fedratinib + Alpelisib; first compound 1 µM) | relative viability (Fedratinib + Olaparib; first compound 0.1 µM) | relative viability (Fedratinib + Olaparib; first compound 0.3162 µM) | relative viability (Fedratinib + Olaparib; first compound 1 µM) | relative viability (GW-2580 + Luminespib; first compound 0.08 µM) | relative viability (GW-2580 + Luminespib; first compound 0.8 µM) | relative viability (GW-2580 + Luminespib; first compound 2.53 µM) | relative viability (GW-2580 + Luminespib; first compound 8 µM) | relative viability (Fedratinib + OSI-027; first compound 0.1 µM) | relative viability (Fedratinib + OSI-027; first compound 0.3162 µM) | relative viability (Fedratinib + OSI-027; first compound 1 µM) | relative viability (Fedratinib + Tozasertib; first compound 0.1 µM) | relative viability (Fedratinib + Tozasertib; first compound 0.3162 µM) | relative viability (Fedratinib + Tozasertib; first compound 1 µM) |
| --- | --- | --- | --- | --- | --- | --- | --- | --- | --- | --- | --- | --- | --- | --- | --- | --- | --- | --- | --- | --- |
| Calu-6 | 1.14 | 1.18 | 1.06 | 1.08 | 0.915 | 0.906 | 0.801 | 0.618 | 0.588 | 0.55 | – | – | – | – | – | – | – | – | – | – |
| ChaGo-K-1 | – | – | – | – | – | – | – | 0.469 | 0.402 | 0.391 | 0.757 | 0.677 | 0.501 | 0.562 | 0.431 | 0.577 | 0.504 | 0.213 | 0.245 | 0.217 |
| EBC-1 | 0.193 | 0.219 | 0.214 | 0.21 | 0.743 | 0.808 | 0.592 | 0.609 | 0.654 | 0.551 | – | – | – | – | – | – | – | – | – | – |
| EKVX | 0.181 | 0.236 | 0.189 | 0.18 | 0.898 | 1.04 | 0.931 | 0.969 | 0.811 | 0.853 | 0.93 | 0.936 | 0.863 | 0.923 | 0.702 | 0.745 | 0.758 | 0.359 | 0.343 | 0.407 |
| EMC-BAC-2 | 0.909 | 0.95 | 0.84 | 0.901 | 0.85 | 0.754 | 0.711 | 0.493 | 0.455 | 0.472 | 1.27 | 1.3 | 1.17 | 1.11 | 0.323 | 0.387 | 0.351 | 0.201 | 0.268 | 0.227 |
| EPLC-272H | 1.13 | 1.04 | 0.886 | 0.916 | 1.05 | 0.915 | 0.914 | 0.601 | 0.847 | 0.459 | 0.274 | 0.204 | – | 0.243 | 0.276 | 0.289 | 0.114 | 0.178 | 0.318 | 0.251 |
| H3255 | 0.216 | 0.265 | 0.234 | 0.249 | 0.458 | 0.715 | 0.652 | 0.532 | 0.518 | 0.522 | 0.825 | 1.1 | 0.84 | 0.67 | 0.521 | 0.671 | 0.565 | 0.578 | 0.537 | 0.655 |
| HARA | 0.757 | 0.902 | 0.535 | 0.63 | 0.84 | 0.793 | 0.743 | 0.785 | 0.826 | 0.557 | 0.882 | 0.801 | 0.389 | 0.596 | 0.494 | 0.575 | 0.291 | 0.107 | 0.105 | 0.0905 |
| HCC-15 | 0.87 | 1.08 | 0.807 | 0.866 | 0.746 | 0.793 | 0.758 | 0.732 | 0.676 | 0.806 | 0.308 | 0.296 | 0.436 | 0.521 | 0.499 | 0.705 | 0.576 | 0.165 | 0.339 | 0.341 |
